# Assay results published in patent US11028099B2, “NRF2 activators” (GLAXOSMITHKLINE INTELLECTUAL PROPERTY DEVELOPMENT LIMITED, priority 2016, dated 2021).
# How the values were obtained:
# [1] = Rat PK; format: in vivo; conditions: oral bioavailability
# [2] = target: T1, full length Keap1 protein / full length NRF2 protein (Homo sapiens, UniProt Q14145); assay: NRF2-Keap1 TR-FRET assay; format: binding; conditions: full length Keap1-FlagHis and biotin-NRF2
# T1 construct: full length NRF2 protein and full length Keap1 protein (Keap1 exists a dimer) are used
# Excerpt: In the NRF2-Keap1 TR-FRET (time-resolved fluorescence resonance energy transfer) assay, full length NRF2 protein and full length Keap1 protein (Keap1 exists a dimer) are used. The assay detects the ability of compound to displace the binding of FlagHis-tagged Keap1 with biotinylated, Avi-tagged NRF2 protein. Biotin-NRF2 binds to streptavidin-europium (a component of the detection mix) and Keap1-FlagHis is recognized by anti-Flag APC (allophycocyanin) antibody (also a component of the detection mix). If binding occurs between the two proteins, there will be an energy transfer from the Eu+3 (donor) at 615 nm to the APC (acceptor) at 665 nm. A potential Keap1 inhibitor will cause a reduction in the TR-FRET signal by interfering with the binding of Keap1 to NRF2.
# One hundred nanoliters of 100× compound dose response curves (serial 3-fold dilutions) in DMSO are stamped using an Echo liquid handling system (Labcyte) into 384-well, low volume, black assay plates (Greiner, #784076), with DMSO in columns 6 and 18. The top concentration of compound is located in columns 1 and 13. All reagents are diluted in assay buffer (50 mM Tris, pH 8.0, 5 mM MgCl2, 100 mM NaCl, 0.005% BSA, 1 mM DTT, and 2 mM CHAPS). The BSA, DTT, and CHAPS are added to the assay buffer on the day of assay. […] Plates are spun at 500 rpm for 1 minute, incubated for 1 hour at RT, and read on an Envision plate reader using a 320 nm excitation filter and 615 nm and 665 nm emission filters. Compound response (% inhibition) and potency (pIC50) are calculated based on the ratio of the two emissions (665 nm/615 nm) and then the transformed data is normalized against controls in the assay (control 1=1% DMSO in the presence of NRF2 and Keap1 protein and control 2=1% DMSO in the absence of protein). […] The % inhibition values are calculated from the ratio (transformed) data by the equation: 100−(100*(compound response−average control 2)/(average control 1−average control2)). […]
# [3] = target: T2, Kelch domain (321-609) of Keap1 / TAMRA-labeled NRF2 ETGE peptide (Homo sapiens, UniProt Q14145); assay: NRF2-Keap1 FP assay (Keap1 Kelch fluorescence polarization); format: binding; conditions: Keap1 (321-609) 20 nM, Tamra labelled peptide 8 nM
# T2 construct: the Kelch domain (321-609) of Keap1 is used
# Excerpt: NRF2-Keap1 FP Assay One model for the NRF2-Keap1 interaction is through two binding sites in the Neh2 domain on NRF2. The two sites are referred to as the DLG binding motif (latch domain, uM affinity) and the ETGE binding motif (hinge domain, nM affinity). The Keap1 protein consists of an N-terminal region (NTR), a broad complex, tramtrack, and brick a brac domain (BTB), an intervening region (IVR), a double glycine repeat domain (DGR or Kelch), and a C-terminal region. The DLG and ETGE motifs of NRF2's Neh2 domain bind to the Kelch domain of Keap1 at different affinities. In the Keap1 Kelch fluorescence polarization (FP) assay, a TAMRA-labeled 16 mer peptide (AFFAQLQLDEETGEFL) containing the ETGE motif of NRF2 and the Kelch domain (321-609) of Keap1 is used. The assay determines if a compound interferes with the binding between Keap1 […] and the TAMRA-labeled peptide. Binding of TAMRA-labeled NRF2 peptide to Keap1 (321-609) results in a high FP signal. If a compound interferes with the binding between the peptide and the protein, it will cause the assay signal to decrease. Thus, assay signal is inversely proportional to binding inhibition. FP Assay:
# 100 nl of 100× compound dose response curves (serial 3-fold dilutions) in DMSO are stamped using an Echo liquid handling system (Labcyte) into 384-well low volume black assay plates (Greiner, #784076), with DMSO in columns 6 and 18. […] The plates are spun at 500 rpm for 1 min, incubated for 1 hr at room temperature, and read on an Analyst GT (Molecular Devices) equipped with excitation (530/25 nm) and emission (580/10 nm) filters designed for Tamra probes. […] Fluorescence measurements, represented as mP, are used in the transformation of the data. Compound activity is calculated based on percent inhibition, normalized against controls in the assay (Control 1 contains the Tamra peptide and Keap1 (321-609) together (0% response) and control 2 contains the Tamra peptide alone (100% response)). Data analysis is handled using the software package Abase XE (Surrey, United Kingdom. The % inhibition values are calculated by the equation: […]
# [4] = tested on: NQO1 specific activity induction (marker for NRF2 activation) in BEAS-2B cells; assay: BEAS-2B NQO1 MTT assay; format: cell-based; conditions: Homo sapiens, 48 hours with compound
# Excerpt: NAD(P)H:quinone oxidoreductase 1 (NQO1), also called DT diaphorase, is a homodimeric FAD-containing enzyme that catalyzes obligatory NAD(P)H-dependent two-electron reductions of quinones and protects cells against the toxic and neoplastic effects of free radicals and reactive oxygen species arising from one-electron reductions. The transcription of NQO1 is finely regulated by NRF2, and thus NQO1 activity is a good marker for NRF2 activation. On day one, frozen BEAS-2B cells (ATCC) are thawed in a water bath, counted, and re-suspended at a concentration of 250,000 cells/mL. Fifty microliters of cells are plated in 384 well black clear-bottomed plates. Plates are incubated at 37° C., 5% CO2 overnight. On day two, plates are centrifuged and 50 nL of compound or controls are added to the cells. Plates are then incubated at 37° C., 5% CO2 for 48 hours. On day four, medium is aspirated from the plate and crude cell lysates are made by adding 13 uL of 1× Cell Signaling Technologies lysis buffer with 1 Complete, Mini, EDTA-free Protease Inhibitor Tablet (Roche) for each 10 mL of lysis buffer. After lysis plates are incubated for 20 minutes at room temperature. Two microliters of lysate are removed for use in Cell Titer Glo assay (Promega) and MTT cocktail is prepared (Prochaska et. al. 1998) for measurement of NQO1 activity. Fifty microliters of MTT cocktail is added to each well, plate is centrifuged, and analyzed on an Envision plate reader (Perkin Elmer) using Absorbance 570 nm label for 30 minutes. Product formation is measured kinetically and the EC50 of NQO1 specific activity induction is calculated by plotting the change in absorbance (Delta OD/min) versus the log of compound concentration followed by 3-parameter fitting.
# [5] = Dog PK study; format: in vivo; conditions: for Dog PK Fpo: male beagle dogs, nominal 1 mg/kg, oral gavage solution vs 60-minute intravenous infusion, cassette, non-crossover
# Procedure: One hundred nanoliters of 100× compound dose response curves (serial 3-fold dilutions) in DMSO are stamped using an Echo liquid handling system (Labcyte) into 384-well, low volume, black assay plates (Greiner, #784076), with DMSO in columns 6 and 18. The top concentration of compound is located in columns 1 and 13. All reagents are diluted in assay buffer (50 mM Tris, pH 8.0, 5 mM MgCl2, 100 mM NaCl, 0.005% BSA, 1 mM DTT, and 2 mM CHAPS). The BSA, DTT, and CHAPS are added to the assay buffer on the day of assay. Using a Multidrop Combi (Thermo Electron Corporation) equipped with a metal tip dispenser, 5 ul of 25 nM Keap1-FlagHis protein is added to all wells of the compound plate, with the exception of the wells in column 18. Wells in column 18 receive 5 ul of assay buffer instead. Plates are centrifuged at 500 rpm for 1 minute, covered with a plate lid, and incubated at 37° C. for 2.25 hours. Plates are then removed from the incubator and allowed to cool to RT for 15 minutes. Five microliters of 50 nM biotin-NRF2 protein is then added to all wells of the plates and the plates are spun at 500 rpm for 1 minute, followed by incubating at 4° C. for 1.25 hours. The plates are then allowed to warm to RT for 15 minutes, followed by the addition of 10 ul of detection mix (1 nM Streptavidin Eu+ W1024 and 5 ug/ml mouse anti-DYKDDDDK IgG conjugated to SureLight APC antibody; both from Columbia Biosciences) to all wells. Plates are spun at 500 rpm for 1 minute, incubated for 1 hour at RT, and read on an Envision plate reader using a 320 nm excitation filter and 615 nm and 665 nm emission filters. Compound response (% inhibition) and potency (pIC50) are calculated based on the ratio of the two emissions (665 nm/615 nm) and then the transformed data is normalized against controls in the assay (control 1=1% DMSO in the presence of NRF2 and Keap1 protein and control 2=1% DMSO in the absence of protein). Data analysis is handled using the software package Abase XE (Surrey, United Kingdom). The % inhibition values are calculated from the ratio (transformed) data by the equation: 100−(100*(compound response−average control 2)/(average control 1−average control2)). For calculation of pIC50s, Abase XE uses a four parameter equation. Dog PK Study
# All studies were conducted after review by the GSK Institutional Animal Care and Use Committee and in accordance with the GSK Policy on the Care, Welfare and Treatment of Laboratory Animals. A pre-study health examination that included a physical exam and complete blood count was performed on the animals prior to use on study. A catheter was temporarily placed in a cephalic or saphenous vein for sample collection on the study day. The animals were fasted overnight prior to dosing; food provided after the 4-hour blood sample was collected. The intravenous and oral solution pharmacokinetic studies were carried out using a non-crossover design; a total of four male beagle dogs were used, two per route of administration.
# The dose for intravenous administration was prepared as a cassette of up to five test compounds in 20% Cavitron™ and 5% DMSO. The intravenous dose formulation was filtered through a 0.22-micron polytetrafluoroethylene (PTFE) filter prior to administration. The dose for oral solution administration was prepared as a cassette of up to five compounds in 6% Cavitron™ and 5% DMSO and was filtered through a 0.22 micron VWR PTFE filter prior to administration. […]
# T1 sequence (Q14145 whole entry): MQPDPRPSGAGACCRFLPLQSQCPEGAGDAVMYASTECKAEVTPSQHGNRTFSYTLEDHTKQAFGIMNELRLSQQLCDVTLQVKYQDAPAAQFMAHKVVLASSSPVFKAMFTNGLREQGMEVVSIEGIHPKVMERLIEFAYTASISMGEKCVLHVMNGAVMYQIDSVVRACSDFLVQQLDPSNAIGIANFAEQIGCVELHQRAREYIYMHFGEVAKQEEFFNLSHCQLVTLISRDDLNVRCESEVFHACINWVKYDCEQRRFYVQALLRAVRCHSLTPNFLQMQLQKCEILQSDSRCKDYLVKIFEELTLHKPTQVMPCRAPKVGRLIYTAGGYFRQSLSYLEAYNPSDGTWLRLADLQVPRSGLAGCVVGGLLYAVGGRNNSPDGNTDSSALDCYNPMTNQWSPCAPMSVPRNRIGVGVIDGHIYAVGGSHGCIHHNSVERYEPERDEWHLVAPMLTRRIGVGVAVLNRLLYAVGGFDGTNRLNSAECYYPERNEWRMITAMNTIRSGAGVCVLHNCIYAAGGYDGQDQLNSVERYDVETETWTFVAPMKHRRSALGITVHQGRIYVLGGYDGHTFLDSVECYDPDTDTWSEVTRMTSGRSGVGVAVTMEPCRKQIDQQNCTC
# T2 sequence (Q14145 321-609): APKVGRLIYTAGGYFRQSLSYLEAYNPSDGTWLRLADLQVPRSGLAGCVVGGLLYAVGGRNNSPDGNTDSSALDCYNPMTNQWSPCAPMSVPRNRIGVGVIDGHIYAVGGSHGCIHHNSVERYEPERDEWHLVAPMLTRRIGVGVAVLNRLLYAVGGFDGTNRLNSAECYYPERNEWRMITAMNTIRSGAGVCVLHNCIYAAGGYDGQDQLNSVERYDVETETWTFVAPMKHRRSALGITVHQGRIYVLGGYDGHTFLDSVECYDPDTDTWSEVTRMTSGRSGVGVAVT
compound,measurement,setting,value
"CC[C@@H]1CN(Cc2cc(C(CC(=O)O)c3ccc4c(nnn4C)c3C)ccc2C)Cc2ncccc2O1 (mixture of isomers) [Beta-stereocenter 50/50 mixture, 3-(1,4-Dimethyl-1H-benzo[d][1,2,3]triazol-5-yl)-3-(3-(((R)-2-ethyl-2,3-dihydropyrido[2,3-t][1,4]oxazepin-4(5H)-yl)methyl)-4-methylphenyl)propanoic acid]",Rat PK Fpo,[1],177%
same,IC50,[2],25 nM
same,IC50,[3],63 nM
same,EC50,[4],20 nM
"CC[C@@H]1CN(Cc2cc([C@H](CC(=O)O)c3ccc4c(nnn4C)c3C)ccc2C)Cc2ncccc2O1 [S-beta-stereocenter isomer, (S)-3-(1,4-dimethyl-1H-benzo[d][1,2,3]triazol-5-yl)-3-(3-(((R)-2-ethyl-2,3-dihydropyrido[2,3-f][1,4]oxazepin-4(5H)-yl)methyl)-4-methylphenyl)propanoic acid]",Rat PK Fpo,[1],78%
same,IC50,[2],12 nM
same,IC50,[3],50 nM
same,Dog PK Fpo,[5],11%
same,Dog PK Fpo,[5]; listed as S-isomer,11%
same,EC50,[4],16 nM
"CC[C@@H]1CN(Cc2cc([C@@H](CC(=O)O)c3ccc4c(nnn4C)c3C)ccc2C)Cc2ncccc2O1 [Formula (I) R-beta-stereocenter isomer, (R)-3-(1,4-dimethyl-1H-benzo[d][1,2,3]triazol-5-yl)-3-(3-(((R)-2-ethyl-2,3-dihydropyrido[2,3-f][1,4]oxazepin-4(5H)-yl)methyl)-4-methylphenyl)propanoic acid]",Rat PK Fpo,[1],129%
same,IC50,[2],16 nM
same,IC50,[3],40 nM
same,difference in the dog oral bioavailability,"[5]; compound of the invention versus the S-isomer, dog",~5 fold
same,Dog PK Fpo,[5],52%
same,Dog PK Fpo,[5]; listed as compound of the invention,52%
same,EC50,[4],20 nM
